Experimental findings from paper PMC4336573 (Chemistry & biology, 2015) are described below.

pIC50: −log10 of the molar value.

The assay concerns the target T1, CBX7ChD (Homo sapiens, UniProt O95931).
T1 sequence (O95931 11-69 limits assumed): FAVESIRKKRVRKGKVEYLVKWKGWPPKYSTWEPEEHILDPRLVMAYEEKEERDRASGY
It counts as binding.
Compound `O=C(O)c1cc(O)c2c(c1)[C@H]([C@H]1c3cc(C(=O)O)cc(O)c3C(=O)c3c(O[C@@H]4O[C@H](CO)[C@@H](O)[C@H](O)[C@H]4O)cccc31)c1cccc(O[C@@H]3O[C@H](CO)[C@@H](O)[C@H](O)[C@H]3O)c1C2=O` [Sennoside A] gave a negative-log IC50 (pIC50) of 4.48.
As to `O=C(O)C1=CC(=C(c2ccc(O)c(C(=O)O)c2)c2ccc(O)c(C(=O)O)c2)C=CC1=O` [Aurin tricarboxylic acid], the pIC50 was 5.26.
With `Cc1cc(-c2ccc(/N=N/c3c(S(=O)(=O)O)cc4cc(S(=O)(=O)O)cc(N)c4c3O)c(C)c2)ccc1/N=N/c1c(S(=O)(=O)O)cc2cc(S(=O)(=O)O)cc(N)c2c1O` [Trypan blue], the negative logarithm of the IC50 (pIC50) is 5.12.
Consider `Cc1cc(-c2ccc(/N=N/c3ccc4c(S(=O)(=O)O)cc(S(=O)(=O)O)c(N)c4c3O)c(C)c2)ccc1/N=N/c1ccc2c(S(=O)(=O)O)cc(S(=O)(=O)O)c(N)c2c1O` [Evans blue], for which the pIC50 is 5.41.

A word on the pIC50: it is the IC50 on a negative log10 scale, so that one unit is a factor of ten.
